Data on 17 compounds can be found in patent US8846668B2, “Inhibitors of 11beta-hydroxysteroid dehydrogenase 1” (Vitae Pharmaceuticals, Inc., priority 2008, dated 2014).

Experiment [1] concerns the target T1, human 11β-HSD1 (microsomes isolated from CHO cells overexpressing human 11β-HSD1) (Homo sapiens, UniProt P28845).
T1 construct: expressed in transfected cells; host or cells: CHO cells (microsomes)
In words: Inhibition of a microsomal preparation of 11β-HSD1, scintillation proximity assay. Type of experiment: biochemical. Particulars: microsomes from CHO cells overexpressing human 11β-HSD1; [3H]cortisone, SPA, 90 minutes at rt.
Description: All reactions were carried out at rt in 96 well clear flexible PET Microbeta plates (PerkinElmer). […] After a 10 minute pre-incubation, 50 μL of enzyme solution containing microsomes isolated from CHO cells overexpressing human 11β-HSD1 (10-20 μg/ml of total protein) was added, and the plates were incubated for 90 minutes at rt. […] The plates were shaken for 120 minutes at rt, and the SPA signal corresponding to [^3H]cortisol was measured on a Microbeta plate reader.

The target in experiment [2] is T2, 11β-HSD1 (human liver microsomes) (Homo sapiens, UniProt P28845).
T2 construct: detecting cortisol generated from cortisterone by human liver microsomes; from tissue; host or cells: human liver microsomes
The experiment can be described thus: In vitro inhibition of 11β-HSD1, HTRF detection of cortisol generated by human liver microsomes. Particulars: 100% indicates no inhibition, zero or below zero indicates complete inhibition; for remaining activity at 0.1 µM: 100 nM inhibitor, 1 hour at 37° C., read-out: Average % control inhibition at 100 nM; for remaining activity at 1 µM: 1 μM inhibitor (footnote *), read-out: Average % control inhibition (1 μM inhibitor concentration). Type of experiment: biochemical. Background: In TR-FRET formats the signal depends on donor and acceptor labels being close together.
Description: Briefly, compounds were incubated for 1 hour at 37° C. in Tris buffer (20 mM tris, 5 mM EDTA, pH 6.0) containing NADPH (200 μM) and cortisone (80 nM). Cortisol generated in the reaction is then detected with a competitive immunoassay, involving two HTRF conjugates: cortisol linked to XL665 and anti-cortisol antibody labeled with Europium cryptate. The incubation period for detection reaction was typically 2 hours. […] The ratio of the two emission signals is then calculated (Em665*10000/Em615). […] Each assay also contained a calibration curve with cortisol to transform the fluorescent data into cortisol concentrations. Percent inhibition of each compound was determined relative to the carbenoxolone signal.

T2 sequence (P28845 whole entry): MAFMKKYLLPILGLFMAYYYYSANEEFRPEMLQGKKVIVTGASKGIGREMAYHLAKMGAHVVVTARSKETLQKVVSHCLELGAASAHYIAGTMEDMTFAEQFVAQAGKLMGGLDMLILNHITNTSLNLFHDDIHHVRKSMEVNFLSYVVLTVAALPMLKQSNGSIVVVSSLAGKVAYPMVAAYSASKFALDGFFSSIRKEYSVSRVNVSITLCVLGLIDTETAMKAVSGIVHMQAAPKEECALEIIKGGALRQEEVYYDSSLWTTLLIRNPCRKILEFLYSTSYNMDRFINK
T1 sequence (P28845 whole entry): as above

For `Cc1nc2cc(-c3ccc([C@H](C)N4CCC(CC(C)(C)O)(C(C)C)OC4=O)cc3)ccc2n1C` (single isomer, unassigned) [Example 37], half-maximal inhibition in experiment [1] (IC50) required 6.9 nM.

Turning to `CCNC(=O)c1ccc(-c2ccc([C@H](C)N3CC[C@](CC(C)(C)O)(c4ccccc4)OC3=O)cc2)cn1` [Example 15, 5-(4-{(S)-1-[(S)-6-(2-Hydroxy-2-methyl-propyl)-2-oxo-6-phenyl-[1,3]oxazinan-3-yl]-ethyl}-phenyl)-pyridine-2-carboxylic acid ethylamide], the remaining activity at 0.1 µM in experiment [2] was -34%.

Turning to `CNC(=O)c1ccc(-c2ccc([C@H](C)N3CC[C@](CC(C)(C)O)(c4ccccc4)OC3=O)cc2)cn1` [Example 16, 5-(4-{(S)-1-[(S)-6-(2-Hydroxy-2-methyl-propyl)-2-oxo-6-phenyl-[1,3]oxazinan-3-yl]-ethyl}-phenyl)-pyridine-2-carboxylic acid methylamide], in experiment [2], the remaining activity at 0.1 µM is -24%.

For `C[C@@H](c1ccc(-c2ccc(C(=O)N(C)C)nc2)cc1)N1CC[C@](CC(C)(C)O)(c2ccccc2)OC1=O` [Example 17, (4-{(S)-1-[(S)-6-(2-Hydroxy-2-methyl-propyl)-2-oxo-6-phenyl-[1,3]oxazinan-3-yl]-ethyl}-phenyl)-pyridine-2-carboxylic acid dimethylamide], the remaining activity at 0.1 µM in experiment [2] was -10%.

On to `C[C@@H](c1ccc(C2CCNCC2)cc1)N1CC[C@](CC(C)(C)O)(c2ccccc2)OC1=O` [Example 18, (S)-6-(2-Hydroxy-2-methyl-propyl)-6-phenyl-3-[(S)-1-(4-piperidin-4-yl-phenyl)-ethyl]-[1,3]oxazinan-2-one], for which the remaining activity at 0.1 µM in experiment [2] amounted to 93%.

As to `C[C@@H](c1ccc(C2CCN(C)CC2)cc1)N1CC[C@](CC(C)(C)O)(c2ccccc2)OC1=O` [Example 21, (S)-6-(2-Hydroxy-2-methyl-propyl)-3-{(5)-1-[4-(1-methyl-piperidin-4-yl)-phenyl]-ethyl}-6-phenyl-[1,3]oxazinan-2-one], the remaining activity at 0.1 µM in experiment [2] is 97%.

For `C[C@@H](c1ccc(C2CCN(S(C)(=O)=O)CC2)cc1)N1CC[C@](CC(C)(C)O)(c2ccccc2)OC1=O` [Example 22, (S)-6-(2-Hydroxy-2-methyl-propyl)-3-{(S)-1-[4-(1-methanesulfonyl-piperidin-4-yl)-phenyl]-ethyl}-6-phenyl-[1,3]oxazinan-2-one], the remaining activity at 0.1 µM in experiment [2] came to 17%.

As for `C[C@@H](c1ccc(C2CCN(C(=O)[C@@H]3CCCO3)CC2)cc1)N1CC[C@](CC(C)(C)O)(c2ccccc2)OC1=O` [Example 23, (S)-6-(2-Hydroxy-2-methyl-propyl)-6-phenyl-3-((S)-1-{4-[1-((S)-tetrahydro-furan-2-carbonyl)-piperidin-4-yl]-phenyl}-ethyl)-[1,3]oxazinan-2-one], in experiment [2], the remaining activity at 0.1 µM stood at 44%.

Turning to `C[C@@H](c1ccc(C2CCN(C(=O)[C@H]3CCCO3)CC2)cc1)N1CC[C@](CC(C)(C)O)(c2ccccc2)OC1=O` [Example 24, (S)-6-(2-Hydroxy-2-methyl-propyl)-6-phenyl-3-((S)-1-{4-[1-((R)-tetrahydro-furan-2-carbonyl)-piperidin-4-yl]-phenyl}-ethyl)-[1,3]oxazinan-2-one], in experiment [2], the remaining activity at 0.1 µM came to 53%.

On to `C[C@@H](c1ccc(C2CCN(C(=O)C(C)(C)O)CC2)cc1)N1CC[C@](CC(C)(C)O)(c2ccccc2)OC1=O` [Example 25, (S)-6-(2-Hydroxy-2-methyl-propyl)-6-phenyl-3-((S)-1-{4-[1-(2-hydroxy-2-propyl-carbonyl)-piperidin-4-yl]-phenyl}-ethyl)-[1,3]oxazinan-2-one], for which, in experiment [2], the remaining activity at 0.1 µM came out at 71%.

`C[C@@H](c1ccc(C2CCN(C(=O)[C@@H]3CCCN3C)CC2)cc1)N1CC[C@](CC(C)(C)O)(c2ccccc2)OC1=O` [Example 26, (S)-6-(2-Hydroxy-2-methyl-propyl)-3-((S)-1-{4-[1-((S)-1-methyl-pyrrolidine-2-carbonyl)-piperidin-4-yl]-phenyl}-ethyl)-6-phenyl-[1,3]oxazinan-2-one]: the remaining activity at 0.1 µM in experiment [2] is 80%.

`C[C@@H](c1ccc(C2CCN(C(=O)[C@H]3CCCN3C)CC2)cc1)N1CC[C@](CC(C)(C)O)(c2ccccc2)OC1=O` [Example 27, (S)-6-(2-Hydroxy-2-methyl-propyl)-3-((S)-1-{4-[1-((R)-1-methyl-pyrrolidine-2-carbonyl)-piperidin-4-yl]-phenyl}-ethyl)-6-phenyl-[1,3]oxazinan-2-one]: in experiment [2], the remaining activity at 0.1 µM turned out to be 86%.

In the case of `C[C@@H](c1ccc(C2CCN(C)C(=O)C2)cc1)N1CC[C@](CC(C)(C)O)(c2ccccc2)OC1=O` (stereo partly drawn) [Example 33, (S)-6-(2-Hydroxy-2-methyl-propyl)-3-{(S)-1-[4-(1-methyl-2-oxo-piperidin-4-yl)-phenyl]-ethyl}-6-phenyl-[1,3]oxazinan-2-one], the remaining activity at 1 µM in experiment [2] is -27%.

Regarding `C[C@@H](c1ccc(C2CCC(=O)N(C)C2)cc1)N1CC[C@](CC(C)(C)O)(c2ccccc2)OC1=O` (stereo partly drawn) [Example 34, (S)-6-(2-Hydroxy-2-methyl-propyl)-3-{(S)-1-[4-(1-methyl-6-oxo-piperidin-3-yl)-phenyl]-ethyl}-6-phenyl-[1,3]oxazinan-2-one], the remaining activity at 1 µM in experiment [2] is -17%.

Regarding `CNC(=O)N1CCC(c2ccc([C@H](C)N3CC[C@](CC(C)(C)O)(c4ccccc4)OC3=O)cc2)CC1` [Example 35, 4-(4-{(S)-1-[(S)-6-(2-Hydroxy-2-methyl-propyl)-2-oxo-6-phenyl-[1,3]oxazinan-3-yl]-ethyl}-phenyl)-piperidine-1-carboxylic acid methylamide], the remaining activity at 0.1 µM in experiment [2] is 1%.

For `C[C@@H](c1ccc(C2CCN(C(=O)N(C)C)CC2)cc1)N1CC[C@](CC(C)(C)O)(c2ccccc2)OC1=O` [Example 36, 4-((S)-4-{1-[(S)-6-(2-Hydroxy-2-methyl-propyl)-2-oxo-6-phenyl-[1,3]oxazinan-3-yl]-ethyl}-phenyl)-piperidine-1-carboxylic acid dimethylamide], the remaining activity at 0.1 µM in experiment [2] worked out at 31%.

Consider `CC(C)C1(CC(C)(C)O)CCN([C@@H](C)c2ccc(-c3ccc4c(c3)ncn4C)cc2)C(=O)O1` (stereo partly drawn) [Example 38, 6-(2-hydroxy-2-methylpropyl)-6-isopropyl-3-{(S)-1-[4-(1-methyl-1H-benzo[d]imidazol-5-yl)phenyl]ethyl}-1,3-oxazinan-2-one], for which inhibition in experiment [1] was half-maximal at 7.7 nM (IC50).
